In patent publication US10477864B2, “Microbiocidal quinoline (thio)carboxamide derivatives” (priority 2016, dated 2019):

Legend:
[1] = system: Mycosphaerella graminicola (Septoria tritici); experiment: Mycosphaerella graminicola (Septoria tritici) / liquid culture (Septoria blotch); type: cell-based; settings: Zymoseptoria tritici; read-out: control of Mycosphaerella graminicola
[2] = system: Gaeumannomyces graminis; experiment: Gaeumannomyces graminis / liquid culture (take-all of cereals); type: cell-based; settings: read-out: control of Gaeumannomyces graminis
[3] = system: Monographella nivalis (Microdochium nivale); experiment: Monographella nivalis (Microdochium nivale) / liquid culture (foot rot cereals); type: cell-based; settings: 96 h, read-out: control of Monographella nivalis
[4] = system: Glomerella lagenarium (Colletotrichum lagenarium); experiment: Glomerella lagenarium (Colletotrichum lagenarium) / liquid culture (anthracnose); type: cell-based; settings: Colletotrichum orbiculare; read-out: control of Glomerella lagenarium
[5] = system: Fusarium culmorum; experiment: microbe, parasite or virus in culture; type: cell-based; settings: read-out: control of Fusarium culmorum
[6] = system: Botryotinia fuckeliana (Botrytis cinerea); experiment: Botryotinia fuckeliana (Botrytis cinerea) / liquid culture (gray mould); type: cell-based; settings: 72 h, read-out: control of Botryotinia fuckeliana
[7] = system: Fusarium culmorum; experiment: whole plant or invertebrate; type: in vivo; settings: in Triticum aestivum, read-out: control of Fusarium culmorum
[8] = system: Sclerotinia sclerotiorum; experiment: Sclerotinia sclerotiorum / liquid culture (cottony rot); settings: 72 h, read-out: control of Sclerotinia sclerotiorum
Experimental: Sclerotinia sclerotiorum/Liquid Culture (Cottony Rot)
Mycelia fragments of a newly grown liquid culture of the fungus are directly mixed into nutrient broth (Vogels broth). After placing a (DMSO) solution of test compound into a microtiter plate (96-well format) the nutrient broth containing the fungal material is added. The test plates are incubated at 24° C. and the inhibition of growth is determined photometrically 3-4 days after application.

[9] = system: Magnaporthe grisea (Pyricularia oryzae); experiment: microbe, parasite or virus in culture; type: cell-based; settings: 72 h, read-out: control of Magnaporthe grisea

`CC(C)(Cc1ccccc1F)NC(=O)c1cnc2ccccc2c1` [Compound E-2, N-[2-(2-fluorophenyl)-1,1-dimethyl-ethyl]quinoline-3-carboxamide] showed an inhibition of growth at 200 ppm [1] of at least 80%, an inhibition of growth at 200 ppm [2] of at least 80% and an inhibition of growth at 200 ppm [3] of at least 80%. It also gave an inhibition of growth at 200 ppm [4] of at least 80%, an inhibition of growth at 200 ppm [5] of at least 80% and an inhibition of growth at 200 ppm [6] of at least 80%.

With `CC(C)CC(C)(Cc1ccccc1)NC(=O)c1cnc2c(F)cccc2c1` (centres unmarked) [Compound E-6, N-(1-benzyl-1,3-dimethyl-butyl)-8-fluoro-quinoline-3-carboxamide] the pest or weed control at 200 ppm [7] was at least 80%, the melting point was 110 to 112 °C and the inhibition of growth at 200 ppm [1] was at least 80%. It also gave an inhibition of growth at 200 ppm [2] of at least 80%, an inhibition of growth at 20 ppm [8] of at least 80% and an inhibition of growth at 200 ppm [3] of at least 80%. For the same compound, the inhibition of growth at 200 ppm [4] was at least 80%, the inhibition of growth at 200 ppm [5] was at least 80% and the inhibition of growth at 200 ppm [9] was at least 80%. It also gave an inhibition of growth at 200 ppm [6] of at least 80%.

For `C=C(C)CC(C)(Cc1ccccc1)NC(=O)c1cnc2c(F)c(F)ccc2c1` (centres unmarked) [Compound E-55, N-(1-benzyl-1,3-dimethyl-but-3-enyl)-7,8-difluoro-quinoline-3-carboxamide], the pest or weed control at 200 ppm [7] was at least 80%, the melting point was 94 to 96 °C and the inhibition of growth at 200 ppm [1] was at least 80%. It also gave an inhibition of growth at 200 ppm [3] of at least 80%, an inhibition of growth at 200 ppm [4] of at least 80% and an inhibition of growth at 200 ppm [5] of at least 80%. For the same compound, the inhibition of growth at 200 ppm [9] was at least 80% and the inhibition of growth at 200 ppm [6] was at least 80%.

In the case of `CC(C)(O)CC(C)(Cc1ccccc1)NC(=O)c1cnc2c(F)cccc2c1` (centres unmarked) [Compound E-58, N-(1-benzyl-3-hydroxy-1,3-dimethyl-butyl)-8-fluoro-quinoline-3-carboxamide], the pest or weed control at 200 ppm [7] is reported as at least 80%, the inhibition of growth at 200 ppm [1] is reported as at least 80% and the inhibition of growth at 200 ppm [3] is reported as at least 80%. For the same compound, the inhibition of growth at 200 ppm [4] was at least 80%, the inhibition of growth at 200 ppm [5] was at least 80% and the inhibition of growth at 200 ppm [9] was at least 80%. For the same compound, the inhibition of growth at 200 ppm [6] was at least 80%.

`Cc1cccc2cc(C(=O)NC(C)(Cc3ccccc3)CC(F)(F)F)cnc12` (centres unmarked) [Compound E-61, N-(1-benzyl-3,3,3-trifluoro-1-methyl-propyl)-8-methyl-quinoline-3-carboxamide] gave a pest or weed control at 200 ppm [7] of at least 80%, a melting point of 120 to 123 °C and an inhibition of growth at 200 ppm [1] of at least 80%. For the same compound, the inhibition of growth at 200 ppm [3] was at least 80%, the inhibition of growth at 200 ppm [4] was at least 80% and the inhibition of growth at 200 ppm [5] was at least 80%. The inhibition of growth at 200 ppm [9] was at least 80% and the inhibition of growth at 200 ppm [6] was at least 80%.

With `CC(C)C[C@@](C)(Cc1ccccc1)NC(=O)c1cnc2c(F)cccc2c1` [Compound F-2, N-[(1S)-1-benzyl-1,3-dimethyl-butyl]-8-fluoro-quinoline-3-carboxamide] the pest or weed control at 200 ppm [7] was at least 80%, the inhibition of growth at 200 ppm [1] was at least 80% and the inhibition of growth at 200 ppm [2] was at least 80%. The inhibition of growth at 20 ppm [8] was at least 80%, the inhibition of growth at 200 ppm [3] was at least 80% and the inhibition of growth at 200 ppm [4] was at least 80%. For the same compound, the inhibition of growth at 200 ppm [5] was at least 80% and the inhibition of growth at 200 ppm [6] was at least 80%.

`CC(C)C[C@H](Cc1ccccc1)NC(=O)c1cnc2c(F)cccc2c1` [Compound F-3, N-[(1R)-1-benzyl-3-methyl-butyl]-8-fluoro-quinoline-3-carboxamide] gave a pest or weed control at 200 ppm [7] of at least 80%, an inhibition of growth at 200 ppm [1] of at least 80% and an inhibition of growth at 200 ppm [2] of at least 80%. It also gave an inhibition of growth at 20 ppm [8] of at least 80%, an inhibition of growth at 200 ppm [4] of at least 80% and an inhibition of growth at 200 ppm [5] of at least 80%. For the same compound, the inhibition of growth at 200 ppm [6] was at least 80%.

`CC(C)C[C@@](C)(Cc1ccccc1)NC(=O)c1cnc2ccccc2c1` [Compound F-6, N-[(1S)-1-benzyl-1,3-dimethyl-butyl]quinoline-3-carboxamide] showed an inhibition of growth at 200 ppm [1] of at least 80%, an inhibition of growth at 200 ppm [2] of at least 80% and an inhibition of growth at 200 ppm [4] of at least 80%. It also gave an inhibition of growth at 200 ppm [5] of at least 80% and an inhibition of growth at 200 ppm [6] of at least 80%.

In the case of `CC(C)(F)C[C@](C)(Cc1ccccc1)NC(=O)c1cnc2c(F)cccc2c1` [Compound F-24, N-[(1S)-1-benzyl-3-fluoro-1,3-dimethyl-butyl]-8-fluoro-quinoline-3-carboxamide], the pest or weed control at 200 ppm [7] is reported as at least 80%, the inhibition of growth at 200 ppm [1] is reported as at least 80% and the inhibition of growth at 200 ppm [3] is reported as at least 80%. The inhibition of growth at 200 ppm [4] was at least 80%, the inhibition of growth at 200 ppm [5] was at least 80% and the inhibition of growth at 200 ppm [6] was at least 80%.

Work on `CC(F)(F)C[C@@](C)(Cc1ccccc1)NC(=O)c1cnc2ccccc2c1` [Compound F-26, N-[(1R)-1-benzyl-3,3-difluoro-1-methyl-butyl]quinoline-3-carboxamide] yielded a pest or weed control at 200 ppm [7] of at least 80%, an inhibition of growth at 200 ppm [1] of at least 80% and an inhibition of growth at 200 ppm [3] of at least 80%. For the same compound, the inhibition of growth at 200 ppm [4] was at least 80%, the inhibition of growth at 200 ppm [5] was at least 80% and the inhibition of growth at 200 ppm [6] was at least 80%.
